Results as given in PubChem BioAssay AID328 (DTP/NCI, 2004).
Several values for one entry are separate records, joined by “and”; a condition that tells them apart may be missing. Equal values may be shown once. Toxic doses and inconclusive results are not listed.

Tested on: BDF1 mice, P388 leukemia ip, median survival T/C
Test: NCI In Vivo Anticancer Drug Screen. Data for tumor model P388 Leukemia (intraperitoneal) in B6D2F1 (BDF1) mice
Conditions: endpoint: median survival time, higher = longer survival
Summary of the method: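 Reported as T/C, where T is the survival measurement in dosed animals and C the same measurement in vehicle controls.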

[1] = dose: 100.0 mg/kg/injection, schedule: Q01DX009 (ip), vehicle: Klucel (hydroxypropylcellulose) (HPC)
[2] = dose: 100.0 mg/kg/injection, schedule: Q04DX003 (ip), vehicle: Klucel (hydroxypropylcellulose) (HPC)
[3] = dose: 200.0 mg/kg/injection, schedule: Q01DX009 (ip), vehicle: Klucel (hydroxypropylcellulose) (HPC)
[4] = dose: 200.0 mg/kg/injection, schedule: Q04DX003 (ip), vehicle: Klucel (hydroxypropylcellulose) (HPC)
[5] = dose: 400.0 mg/kg/injection, schedule: Q04DX003 (ip), vehicle: Klucel (hydroxypropylcellulose) (HPC)
[6] = dose: 100.0 mg/kg/injection, schedule: Q01DX009 (ip), vehicle: saline with Tween-80
[7] = dose: 200.0 mg/kg/injection, schedule: Q01DX009 (ip), vehicle: saline with Tween-80
[8] = dose: 12.5 mg/kg/injection, schedule: Q01DX009 (ip), vehicle: saline
[9] = dose: 50.0 mg/kg/injection, schedule: Q01DX009 (ip), vehicle: saline with Tween-80
[10] = dose: 50.0 mg/kg/injection, schedule: Q01DX009 (ip), vehicle: Klucel (hydroxypropylcellulose) (HPC)
[11] = dose: 100.0 mg/kg/injection, schedule: Q04DX003 (ip), vehicle: saline with Tween-80

## CCN(C(=O)Nc1ccccc1Cl)c1ccccc1
dose: 100.0 mg/kg/injection, schedule: Q01DX001 (ip), vehicle: saline with Tween-80
  T/C: 95 % of control
dose: 200.0 mg/kg/injection, schedule: Q01DX001 (ip), vehicle: saline with Tween-80
  T/C: 100 % of control
dose: 400.0 mg/kg/injection, schedule: Q01DX001 (ip), vehicle: saline with Tween-80
  T/C: 100 % of control

## S
[1]
  T/C: 100 % of control
[2]
  T/C: 86 % of control
[3]
  T/C: 110 % of control
[4]
  T/C: 100 % of control
[5]
  T/C: 100 % of control

## ClC1=C(Br)C(Br)(Br)C(=C(Br)Br)C1(Br)Br
[6]
  T/C: 100 % of control
[2]
  T/C: 90 % of control
[7]
  T/C: 109 % of control
dose: 400.0 mg/kg/injection, schedule: Q01DX009 (ip), vehicle: saline with Tween-80
  T/C: 104 % of control
[5]
  T/C: 100 % of control

## Cc1ccc(C(=O)C[S+](C)C)c(C)c1
dose: 10.46 mg/kg/injection, schedule: Q01DX001 (ip), vehicle: saline
  T/C: 109 % of control
[8]
  T/C: 100 % of control
dose: 20.93 mg/kg/injection, schedule: Q01DX001 (ip), vehicle: saline
  T/C: 100 % of control
dose: 25.0 mg/kg/injection, schedule: Q01DX009 (ip), vehicle: saline
  T/C: 105 % of control
dose: 41.87 mg/kg/injection, schedule: Q01DX001 (ip), vehicle: saline
  T/C: 100 % of control
dose: 50.0 mg/kg/injection, schedule: Q01DX009 (ip), vehicle: saline
  T/C: 100 % of control
dose: 56.25 mg/kg/injection, schedule: Q04DX003 (ip), vehicle: saline
  T/C: 108 % of control
dose: 75.0 mg/kg/injection, schedule: Q01DX009 (ip), vehicle: saline
  T/C: 100 % of control
dose: 112.5 mg/kg/injection, schedule: Q04DX003 (ip), vehicle: saline
  T/C: 95 % of control

## Cc1ccc(Nc2c3ccccc3nc3ccccc23)cc1
dose: 100.0 mg/kg/injection, schedule: Q01DX001 (ip), vehicle: Klucel (hydroxypropylcellulose) (HPC)
  T/C: 109 % of control
dose: 200.0 mg/kg/injection, schedule: Q01DX001 (ip), vehicle: Klucel (hydroxypropylcellulose) (HPC)
  T/C: 118 % of control
dose: 400.0 mg/kg/injection, schedule: Q01DX001 (ip), vehicle: Klucel (hydroxypropylcellulose) (HPC)
  T/C: 113 % of control

## O=C1c2ccccc2C(=O)c2c(NCCNCCNCCO)ccc(NCCNCCNCCO)c21
dose: 25.0 mg/kg/injection, schedule: Q01DX009 (ip), vehicle: water
  T/C: 100 % of control
dose: 50.0 mg/kg/injection, schedule: Q01DX009 (ip), vehicle: water
  T/C: 113 % of control
dose: 100.0 mg/kg/injection, schedule: Q01DX009 (ip), vehicle: water
  T/C: 115 % of control

## O=C(N/N=C/c1ccccc1Cl)c1ccccc1
[1]
  T/C: 109 % of control
[3]
  T/C: 118 % of control
dose: 400.0 mg/kg/injection, schedule: Q01DX009 (ip), vehicle: Klucel (hydroxypropylcellulose) (HPC)
  T/C: 90 % of control

## COC(=O)C12Oc3ccc(-c4ccc5c(c4O)C(O)=C4C(=O)CC(C)C(O)C4(C(=O)OC)O5)c(O)c3C(O)=C1C(=O)CC(C)C2O (stereo not given)
dose: 0.39 mg/kg/injection, schedule: Q01DX009 (ip), vehicle: saline with Tween-80
  T/C: 100 % of control
dose: 0.78 mg/kg/injection, schedule: Q01DX009 (ip), vehicle: saline with Tween-80
  T/C: 109 % of control
dose: 0.78 mg/kg/injection, schedule: Q01DX009 (ip), vehicle: saline
  T/C: 100 % of control
dose: 1.56 mg/kg/injection, schedule: Q01DX009 (ip), vehicle: saline with Tween-80
  T/C: 104 % of control and 109 % of control
dose: 3.13 mg/kg/injection, schedule: Q01DX009 (ip), vehicle: saline with Tween-80
  T/C: 104 % of control and 109 % of control
dose: 3.13 mg/kg/injection, schedule: Q01DX009 (ip), vehicle: saline
  T/C: 93 % of control
dose: 6.25 mg/kg/injection, schedule: Q01DX009 (ip), vehicle: saline with Tween-80
  T/C: 101 % of control

## O=C1C(Cl)=C(Nc2nccs2)C(=O)c2ccccc21
dose: 50.0 mg/kg/injection, schedule: Q01DX005 (ip), vehicle: saline with Tween-80
  T/C: 102 % of control
dose: 100.0 mg/kg/injection, schedule: Q01DX005 (ip), vehicle: saline with Tween-80
  T/C: 107 % of control
dose: 200.0 mg/kg/injection, schedule: Q01DX005 (ip), vehicle: saline with Tween-80
  T/C: 118 % of control

## Nc1nc(N)c2nc(CNc3ccc(C(=O)NC(CCC(=O)O)C(=O)O)cc3)cnc2n1 (stereo not given)
dose: 0.03 mg/kg/injection, schedule: Q01DX010 (ip), vehicle: other
  T/C: 90 % of control and 104 % of control
dose: 0.05 mg/kg/injection, schedule: Q01DX010 (ip), vehicle: other
  T/C: 109 % of control and 115 % of control
dose: 0.1 mg/kg/injection, schedule: Q01DX010 (ip), vehicle: other
  T/C: 118 % of control
dose: 0.2 mg/kg/injection, schedule: Q01DX010 (ip), vehicle: other
  T/C: 163 % of control and 175 % of control

## Clc1nc(NCc2ccccc2)c2cn[nH]c2n1
dose: 25.0 mg/kg/injection, schedule: Q01DX009 (ip), vehicle: saline with Tween-80
  T/C: 91 % of control
[9]
  T/C: 91 % of control
[6]
  T/C: 91 % of control

## COc1ccc2nc3cc(Cl)ccc3c(NCCCNCCCCNCCCNc3c4ccc(Cl)cc4nc4ccc(OC)cc34)c2c1
dose: 1.25 mg/kg/injection, schedule: Q01DX009 (ip), vehicle: saline with Tween-80
  T/C: 116 % of control
dose: 2.5 mg/kg/injection, schedule: Q01DX009 (ip), vehicle: saline with Tween-80
  T/C: 107 % of control

## O=C1c2ccccc2C(=O)c2cc(S(=O)(=O)Cl)ccc21
dose: 100.0 mg/kg/injection, schedule: Q01DX001 (ip), vehicle: saline
  T/C: 109 % of control
dose: 200.0 mg/kg/injection, schedule: Q01DX001 (ip), vehicle: saline
  T/C: 109 % of control
dose: 400.0 mg/kg/injection, schedule: Q01DX001 (ip), vehicle: saline
  T/C: 90 % of control

## CCn1c2ccccc2c2cc(NC(=O)Nc3ccc([N+](=O)[O-])cc3C)ccc21
[9]
  T/C: 100 % of control
[6]
  T/C: 91 % of control
[7]
  T/C: 91 % of control

## O=C(CC(O)(C(F)(F)F)C(F)(F)F)c1cccs1
dose: 132.0 mg/kg/injection, schedule: Q04DX003 (ip), vehicle: saline with Tween-80
  T/C: 105 % of control

## CCN1c2ccccc2CC(CCCN(C)C)(C(N)=O)c2ccccc21 (stereo not given)
dose: 100.0 mg/kg/injection, schedule: Q01DX009 (ip), vehicle: saline
  T/C: 97 % of control
dose: 200.0 mg/kg/injection, schedule: Q01DX009 (ip), vehicle: saline
  T/C: 98 % of control

## C[C@@H]1C[C@](O)([C@@H](C)Cl)C(=O)O[C@@H]2CCN3CC=C(COC(=O)[C@]1(C)O)[C@H]23
dose: 30.0 mg/kg/injection, schedule: Q01DX010 (ip), vehicle: saline
  T/C: 105 % of control

## Oc1c(Cl)cc(Cl)cc1C1N2CCCCC2C2c3cccn3-c3ccccc3N21 (stereo not given)
[10]
  T/C: 93 % of control
[1]
  T/C: 90 % of control

## CCN(CC)CCNC(=S)N/N=C(C)\C(C)=N/NC(=S)NCCN(CC)CC
dose: 6.25 mg/kg/injection, schedule: Q01DX009 (ip), vehicle: saline
  T/C: 105 % of control
[8]
  T/C: 105 % of control

## CCCSCCCCSCCC
[11]
  T/C: 109 % of control
dose: 200.0 mg/kg/injection, schedule: Q04DX003 (ip), vehicle: saline with Tween-80
  T/C: 113 % of control
dose: 400.0 mg/kg/injection, schedule: Q04DX003 (ip), vehicle: saline with Tween-80
  T/C: 109 % of control

## O=C(COc1ccc(Cl)cc1Cl)Oc1c(Cl)c(Cl)c(Cl)c(Cl)c1Cl
dose: 50.0 mg/kg/injection, schedule: Q04DX003 (ip), vehicle: saline with Tween-80
  T/C: 91 % of control
[11]
  T/C: 87 % of control

## O=COC1CC2CC1C1CCCC21 (stereo not given)
[9]
  T/C: 122 % of control
dose: 50.0 mg/kg/injection, schedule: Q04DX003 (ip), vehicle: saline
  T/C: 100 % of control
[6]
  T/C: 109 % of control
dose: 100.0 mg/kg/injection, schedule: Q04DX003 (ip), vehicle: saline
  T/C: 96 % of control
dose: 200.0 mg/kg/injection, schedule: Q04DX003 (ip), vehicle: saline
  T/C: 100 % of control

## CC(=O)C1CCC=C2C1CC1CC2C1(C)C (stereo not given)
[2]
  T/C: 100 % of control
[4]
  T/C: 109 % of control
[5]
  T/C: 104 % of control

## Cc1cc(=O)[nH]c(N/N=C/C(C)C)n1
dose: 25.0 mg/kg/injection, schedule: Q01DX009 (ip), vehicle: Klucel (hydroxypropylcellulose) (HPC)
  T/C: 92 % of control
[10]
  T/C: 92 % of control
dose: 50.0 mg/kg/injection, schedule: Q04DX003 (ip), vehicle: Klucel (hydroxypropylcellulose) (HPC)
  T/C: 96 % of control
[1]
  T/C: 100 % of control
[2]
  T/C: 88 % of control
[4]
  T/C: 88 % of control

## O=C(NCCCl)Nc1cccc2cc3ccccc3cc12
[2]
  T/C: 100 % of control
[4]
  T/C: 95 % of control
[5]
  T/C: 90 % of control

## Clc1ccc(-n2nnc3cc(Cl)ccc32)c(Cl)c1
[6]
  T/C: 99 % of control

## COC(=O)C(CSCSC)NC(=O)/C=C/c1cc(OC)ccc1OC (stereo not given)
[9]
  T/C: 93 % of control
[6]
  T/C: 92 % of control
[7]
  T/C: 88 % of control
